In patent US12331041B2, “GLP-1 receptor agonists and uses thereof” (Pfizer Inc., priority 2018, dated 2025):
Where a name gives a salt, the structure may show the parent alone.

Tests used:
human GLP-1R [1] = target: T1, human GLP-1R (Homo sapiens, UniProt P43220, L260F); experiment: CHO GLP-1R Clone C6 - Assay 2 (HTRF cAMP agonist assay); assay type: cell-based; settings: for EC50: CHO clone C6, low GLP-1R density, cAMP, geometric mean; for Emax: CHO clone C6, relative to saturating full agonist GLP-1 (1 μM), arithmetic mean
T1 construct: expressed in transfected cells; host or cells: CHO Flp-In T-REx, clonal line C6 (pcDNA5-FRT-TO)
T1 sequence (P43220 24-463 L260F): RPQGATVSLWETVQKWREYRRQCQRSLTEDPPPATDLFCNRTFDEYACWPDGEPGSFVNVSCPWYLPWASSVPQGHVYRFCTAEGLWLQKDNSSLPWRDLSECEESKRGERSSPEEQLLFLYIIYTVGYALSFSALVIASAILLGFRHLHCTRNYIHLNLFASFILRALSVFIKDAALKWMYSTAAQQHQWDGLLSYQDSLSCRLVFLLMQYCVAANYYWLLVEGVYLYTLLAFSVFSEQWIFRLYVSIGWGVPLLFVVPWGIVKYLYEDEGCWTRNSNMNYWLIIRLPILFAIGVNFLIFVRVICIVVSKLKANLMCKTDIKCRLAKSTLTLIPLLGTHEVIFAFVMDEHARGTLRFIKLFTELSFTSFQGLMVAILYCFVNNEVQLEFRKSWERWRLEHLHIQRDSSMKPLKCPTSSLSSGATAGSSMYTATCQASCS

human GLP-1R [2] = target: T2, human GLP-1R (Homo sapiens, UniProt P43220, G168S); experiment: CHO GLP-1R Clone H6 - Assay 1 (HTRF cAMP agonist assay); assay type: cell-based; settings: for EC50: CHO Clone H6, high GLP-1R density, cAMP, geometric mean; for Emax: CHO Clone H6, relative to saturating full agonist GLP-1 7-36 (1 μM), arithmetic mean
T2 construct: expressed in transfected cells
T2 sequence (P43220 24-463 G168S): as the sequence (P43220 24-463 L260F) above, with G145S, F237L counted along it
Procedure, shortened: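 CHO Clone H6 cells stably expressing human GLP-1R (G168S) were plated 48 h, then given compound for 30 min at 37° C in HBSS/0.1% BSA/HEPES with 100 μM IBMX and 1% DMSO. cAMP was measured by HTRF against a standard curve.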

| EC50 (human GLP-1R [1]) [nM] | Emax (human GLP-1R [1]) [%] | EC50 (human GLP-1R [2]) [nM] | Emax (human GLP-1R [2]) [%] | SMILES |
| --- | --- | --- | --- | --- |
| 110 | 98 | 4.4 | 86 | O=C(O)c1ccc2nc(CN3CCC(c4ccnc(OCc5ccc(Cl)cc5F)n4)CC3)n(C[C@@H]3CCO3)c2c1 [Example 62, 2-[(4-{2-[(4-Chloro-2-fluorobenzyl)oxy]pyrimidin-4-yl}piperidin-1-yl)methyl]-1-[(2S)-oxetan-2-ylmethyl]-1H-benzimidazole-6-carboxylic acid] |
| 100 | 100 | 24 | 96 | CCn1nncc1Cn1c(CN2CCC(c3ccnc(OCc4ccc(Cl)cc4F)n3)CC2)nc2ccc(C(=O)O)cc21 [Example 64, 2-[(4-{2-[(4-chloro-2-fluorobenzyl)oxy]pyrimidin-4-yl}piperidin-1-yl)methyl]-1-[(1-ethyl-1H-1,2,3-triazol-5-yl)methyl]-1H-benzimidazole-6-carboxylic acid] |
| 1700 | 110 | 88 | 85 | COCCn1c(CN2CCC(c3ccnc(OCc4ccc(Cl)cc4F)n3)CC2)nc2ccc(C(=O)O)cc21 [Example 65, 2-[(4-{2-[(4-chloro-2-fluorobenzyl)oxy]pyrimidin-4-yl}piperidin-1-yl)methyl]-1-(2-methoxyethyl)-1H-benzimidazole-6-carboxylic acid, hydrochloride salt] |
| 52 | 120 | 3.3 | 90 | O=C(O)c1ccc2nc(CN3CCC(c4ccnc(OCc5ccc(Cl)cc5F)n4)CC3)n(C[C@@H]3CCO3)c2n1 [Example 67, ammonium 2-[(4-{2-[(4-chloro-2-fluorobenzyl)oxy]pyrimidin-4-yl}piperidin-l-yl)methyl]-3-[(2S)-oxetan-2-ylmethyl]-3H-imidazo[4,5-b]pyridine-5-carboxylate] |
| 18 | 110 | 0.91 | 89 | C[C@H]1CN(c2nc(OCc3ccc(Cl)cc3F)ncc2F)CCN1Cc1nc2ccc(C(=O)O)cc2n1C[C@@H]1CCO1 [Example 69, Ammonium 2-{[(2S)-4-{2-[(4-chloro-2-fluorobenzyl)oxy]-5-fluoropyrimidin-4-yl}-2-methylpiperazin-1-yl]methyl}-1-[(2S)-oxetan-2-ylmethyl]-1H-benzimidazole-6-carboxylate] |
| 160 | 90 | 8.9 | 82 | C[C@H]1CN(c2nc(OCc3ccc(Cl)cc3F)ncc2F)CCN1Cc1nc2ccc(C(=O)O)cc2n1C[C@@H]1CCCO1 [Example 71, 2-{[(2S)-4-{2-[(4-chloro-2-fluorobenzyl)oxy]-5-fluoropyrimidin-4-yl}-2-methylpiperazin-1-yl]methyl}-1-[(2S)-tetrahydrofuran-2-ylmethyl]-1H-benzimidazole-6-carboxylic acid] |
| 11000 | 96 | 500 | 86 | COCCn1c(CN2CCN(c3ccnc(OCc4ccc(Cl)cc4F)n3)[C@H](C)C2)nc2ccc(C(=O)O)cc21 [Example 74, 2-{[(3R)-4-{2-[(4-chloro-2-fluorobenzyl)oxy]pyrimidin-4-yl}-3-methylpiperazin-1-yl]methyl}-1-(2-methoxyethyl)-1H-benzimidazole-6-carboxylic acid, trifluoroacetate salt] |

Second part, the molecule before the results:

| SMILES | EC50 (human GLP-1R [1]) [nM] | Emax (human GLP-1R [1]) [%] | EC50 (human GLP-1R [2]) [nM] | Emax (human GLP-1R [2]) [%] |
| --- | --- | --- | --- | --- |
| O=C(O)c1ccc2nc(C3CC34CCN(c3nc(OCc5ccc(Cl)cc5F)ncc3F)CC4)n(Cc3cocn3)c2c1 (stereo not drawn) [Example 43, 2-(6-{2-[(4-chloro-2-fluorobenzyl)oxy]-5-fluoropyrimidin-4-yl}-6-azaspiro[2.5]oct-1-yl)-1-(1,3-oxazol-4-ylmethyl)-1H-benzimidazole-6-carboxylic acid, trifluoroacetate salt, from P7] | 250 | 70 | 13 | 75 |
| O=C(O)c1ccc2nc(C3CC34CCN(c3nc(OCc5ccc(Cl)cc5F)ncc3F)CC4)n(Cc3cnco3)c2c1 (stereo not drawn) [Example 45, 2-(6-{2-[(4-chloro-2-fluorobenzyl)oxy]-5-fluoropyrimidin-4-yl}-6-azaspiro[2.5]oct-1-yl)-1-(1,3-oxazol-5-ylmethyl)-1H-benzimidazole-6-carboxylic acid, trifluoroacetate salt, from P7] | 230 | 83 | 12 | 72 |
| Cn1c(C2CC23CCN(c2nc(OCc4ccc(C#N)cc4F)c(F)cc2F)CC3)nc2ccc(C(=O)O)cc21 (stereo not drawn) [Example 59, 2-(6-{6-[(4-cyano-2-fluorobenzyl)oxy]-3,5-difluoropyridin-2-yl}-6-azaspiro[2.5]oct-1-yl)-1-methyl-1H-benzimidazole-6-carboxylic acid, trifluoroacetate salt] | 120 | 85 | 6.8 | 80 |
| Cn1cnnc1Cn1c(C2CC23CCN(c2nc(OCc4ccc(Cl)cc4F)c(F)cc2F)CC3)nc2ccc(C(=O)O)cc21 (stereo not drawn) [Example 60, 2-(6-{6-[(4-chloro-2-fluorobenzyl)oxy]-3,5-difluoropyridin-2-yl}-6-azaspiro[2.5]oct-1-yl)-1-[(4-methyl-4H-1,2,4-triazol-3-yl)methyl]-1H-benzimidazole-6-carboxylic acid, trifluoroacetate salt] | 110 | 110 | 5 | 91 |
| N#Cc1ccc(COc2nc(N3CCC4(CC3)CC4c3nc4ccc(C(=O)O)cc4n3Cc3ncco3)c(F)cc2F)c(F)c1 (stereo not drawn) [Example 61, 2-(6-{6-[(4-cyano-2-fluorobenzyl)oxy]-3,5-difluoropyridin-2-yl}-6-azaspiro[2.5]oct-1-yl)-1-(1,3-oxazol-2-ylmethyl)-1H-benzimidazole-6-carboxylic acid, trifluoroacetate salt] | 26 | 74 | 1.1 | 68 |
| O=C(O)c1ccc2nc(CN3CCC(c4ccnc(OCc5ccc(Cl)cc5F)n4)CC3)n(Cc3ncco3)c2c1 [Example 68, 2-[(4-{2-[(4-chloro-2-fluorobenzyl)oxy]pyrimidin-4-yl}piperidin-1-yl)methyl]-1-(1,3-oxazol-2-ylmethyl)-1H-benzimidazole-6-carboxylic acid, trifluoroacetate salt] | 310 | 92 | 8.3 | 77 |
| O=C(O)c1ccc2nc(CN3CCN(c4nc(OCc5ccc(Cl)cc5F)ncc4F)CC3)n(C[C@@H]3CCO3)c2c1 [Example 72, 2-[(4-{2-[(4-chloro-2-fluorobenzyl)oxy]-5-fluoropyrimidin-4-yl}piperazin-1-yl)methyl]-1-[(2S)-oxetan-2-ylmethyl]-1H-benzimidazole-6-carboxylic acid] | 120 | 130 | 6 | 96 |
| C[C@H]1CN(c2ccnc(OCc3ccc(Cl)cc3F)n2)CCN1Cc1nc2ccc(C(=O)O)cc2n1C[C@@H]1CCO1 [Example 73, 2-{[(2S)-4-{2-[(4-chloro-2-fluorobenzyl)oxy]pyrimidin-4-yl}-2-methylpiperazin-1-yl]methyl}-1-[(2S)-oxetan-2-ylmethyl]-1H-benzimidazole-6-carboxylic acid] | 89 | 100 | 2.4 | 84 |
